Experiment [1] addresses T1, human CTPS1 (Homo sapiens, UniProt P17812).
T1 construct: purchased Proteros biostructures GmbH
T1 sequence (P17812 1-591): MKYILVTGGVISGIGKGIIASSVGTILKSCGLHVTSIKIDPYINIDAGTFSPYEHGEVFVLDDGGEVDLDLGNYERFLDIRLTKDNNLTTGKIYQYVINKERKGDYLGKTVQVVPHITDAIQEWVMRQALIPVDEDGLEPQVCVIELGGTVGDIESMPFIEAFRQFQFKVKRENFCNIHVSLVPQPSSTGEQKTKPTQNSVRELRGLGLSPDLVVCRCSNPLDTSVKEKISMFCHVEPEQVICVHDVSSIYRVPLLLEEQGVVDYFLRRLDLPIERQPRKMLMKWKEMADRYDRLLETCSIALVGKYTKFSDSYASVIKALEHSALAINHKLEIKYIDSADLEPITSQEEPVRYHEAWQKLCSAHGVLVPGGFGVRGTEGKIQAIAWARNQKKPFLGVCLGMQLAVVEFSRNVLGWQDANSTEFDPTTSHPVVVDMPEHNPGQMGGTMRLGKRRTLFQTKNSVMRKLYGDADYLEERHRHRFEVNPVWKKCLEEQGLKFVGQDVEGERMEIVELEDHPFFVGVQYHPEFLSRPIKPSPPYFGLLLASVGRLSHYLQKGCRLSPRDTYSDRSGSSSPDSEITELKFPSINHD
The experiment in a line: Human CTPS1 enzyme inhibition (ADP-Glo Max assay). It is filed as biochemical. As to conditions: ADP-Glo Max assay, read-out: CTPS1 (Human CTPS1 Enzyme Inhibition data grouped by potency range, IC50). A digest of the protocol:
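Full-length FLAG-His-tagged human CTPS1 and compound were preincubated 10 min at 25 °C in 50 mM Tris pH 8.0, 10 mM MgCl2, 0.01% Tween-20, 2 mM L-cysteine. Substrate mix: ATP 0.31 mM, GTP 0.034 mM, UTP 0.48 mM, glutamine 0.186 mM; linear-phase reaction at 25 °C. ADP-Glo Max luminescence; IC50 from inhibition curve.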
(In general: In ADP-Glo the light output rises with the ADP produced.)

The test system of experiment [2] is human CTPS1 versus CTPS2. The experiment in a line: Human CTPS1 versus CTPS2 selectivity assessment by RapidFire/MS analysis. It is filed as biochemical. The procedure: Biological Example 2—RapidFire/MS-Based Enzyme Selectivity Assays.
Human CTPS1 Versus CTPS2 Selectivity Assessment by RapidFire/MS Analysis.
The enzyme inhibitory activities against each target isoform of interest may be determined for the compounds of the invention using an optimised RapidFire high-throughput mass spectrometry (RF/MS) assay format. RF/MS assays for both human CTPS1 and CTPS2 may be performed in assay buffer consisting of 50 mM HEPES (Merck), 20 mM MgCl2, 5 mM KCl, 1 mM DTT, 0.01% Tween-20, pH to 8.0 accordingly. Human full-length active C-terminal FLAG-His-tag CTPS1 (UniProtKB-P17812, CTPS[1-591]-[…]) may be obtained from Proteros biostructures GmbH. Human full length active C-terminal FLAG-His-Avi tagged CTPS2 (UniProtKB-Q9NRF8, CTPS2 [1-586]-[…]) may be obtained from Harker Bio.
Human CTPS (1 or 2) protein may be prepared in 1× assay buffer to the final working protein concentration required for the reaction. A 2 uL volume per well of 2×CTPS (1 or 2) protein may be mixed with 40 nL of compound using acoustic (ECHO) delivery and incubated for 10 minutes at 25° C. Each isoform enzymatic reaction may be subsequently initiated by addition of 2 uL per well of a 2× substrate mix in assay buffer. For hCTPS1: ATP (0.3 mM), UTP (0.2 mM), GTP (0.07 mM) and L-glutamine (0.1 mM). For hCTPS2: ATP (0.1 mM), UTP (0.04 mM), GTP (0.03 mM) and L-glutamine (0.1 mM). Each mixture may be incubated for an appropriate amount of time per isoform within the determined linear phase of the reaction at 25° C. A 60 uL volume of stop solution (1% formic acid with 0.5 uM ^13C9-^15N3-CTP in H2O) may be added and the plate immediately heat-sealed and centrifuged for 10 minutes at 4,000 rpm. Following centrifugation, plates may be loaded onto the Agilent RapidFire microfluidic solid phase extraction system coupled to an AP14000 triple quadrupole mass spectrometer (RF/MS) for analysis.
In all cases, the enzyme converts UTP to CTP. Highly specific and sensitive multiple reaction monitoring (MRM) MS methods may be optimised for the detection of the enzymatic reaction product, CTP, and the stable isotope labelled product standard ^13C9-^15N3-CTP. Readout for data analysis may be calculated as the ratio between the peak area of the product CTP and the internal standard ^13C9-^15N3-CTP. For data reporting, the following equation may be used: […]
For each screening plate, the means of the negative (DMSO) and positive control values were used for the calculation of the respective assay window (S/B) and Z′ values. The median of the respective control values was used for calculation of percent inhibition according to the following equation: […]
Percentage inhibition was then plotted against compound concentration, and the 50% inhibitory concentration (IC50) was determined from the resultant concentration-response curve.
Fold selectivity between CTPS1 and CTPS2 was subsequently calculated according to the following equation: […]

Structures are written as SMILES. pIC50: −log10 of the molar value. Like-named read-outs stand apart in the source and are kept apart here.

This note sets out measurements from patent US20230002352A1, “SULFONAMIDE DERIVATIVES AS CTPS1 INHIBITORS” (Step Pharma S.A.S., priority 2019, published 2023).

The pIC50 is the IC50 on a negative log10 scale, so that one unit is a factor of ten. In the case of `CCOc1cncc(-c2ccc(NC(=O)C(CCOC)c3ccnc(NS(=O)(=O)C4CC4)n3)c(F)c2)n1` (centres unmarked) [Example P146], the pIC50 in experiment [1] (Table 23) was not below 7.00. The “Selectivity (fold selectivity between CTPS1 and CTPS2)” value in experiment [2] (Table 26) was “+++ (>60 fold (+++))”.

Regarding `CCOc1cncc(-c2ccc(NC(=O)C(C)(C)c3ccnc(NS(=O)(=O)C4CC4)n3)c(C#N)c2)n1` [Example P34], in experiment [1] (Table 23), the pIC50 is not below 7.00. For the same compound, the “Selectivity (fold selectivity between CTPS1 and CTPS2)” value in experiment [2] (Table 26) is given as “+ (2-30 fold (+))”.

With `CCOc1cncc(-c2ccc(NC(=O)C(OC)c3ccnc(NS(=O)(=O)C4CC4)n3)cc2)n1` (centres unmarked) [Example P164], in experiment [1] (Table 23), the pIC50 was not below 7.00. For the same compound, the “Selectivity (fold selectivity between CTPS1 and CTPS2)” value in experiment [2] (Table 26) is on record as “+ (2-30 fold (+))”.

For the compound `CCOc1cncc(-c2ccc(NC(=O)C3(c4ccnc(NS(=O)(=O)C5CC5)n4)CCC(O)CC3)nc2)n1` (single isomer, unassigned) [Example P228, 1-(2-(cyclopropanesulfonamido)pyrimidin-4-yl)-N-(5-(6-ethoxypyrazin-2-yl)pyridin-2-yl)-4-hydroxycyclohexanecarboxamide], the pIC50 in experiment [1] (Table 24) was 5.00 to 6.00. The “Selectivity (fold selectivity between CTPS1 and CTPS2)” value in experiment [2] (Table 27) is recorded as “+ (2-30 fold (+))”.

In the case of `CC(C)Oc1cncc(-c2ccc(C(=O)NC(C)(C)c3cncc(NS(=O)(=O)C4CC4)n3)c(F)c2)n1` [Example P221], the pIC50 in experiment [1] (Table 23) is 6.00 to 7.00. For the same compound, the “Selectivity (fold selectivity between CTPS1 and CTPS2)” value in experiment [2] (Table 26) is on record as “+ (2-30 fold (+))”.

Regarding `CCOc1cncc(-c2ccc(NC(=O)C3(c4ccnc(NS(=O)(=O)C5CC5)n4)CCC(F)(F)CC3)nc2)n1` [Example P242], in experiment [1] (Table 24), the pIC50 is not below 7.00. Moreover, the “Selectivity (fold selectivity between CTPS1 and CTPS2)” value in experiment [2] (Table 27) is recorded as “+++ (>60 fold (+++))”.

Turning to `CC(C)(C(=O)Nc1ccc(-c2cncc(C3CC3)n2)cn1)c1ccnc(NS(=O)(=O)C2CC2)n1` [Example P125], in experiment [1] (Table 23), the pIC50 is 6.00 to 7.00. For the same compound, the “Selectivity (fold selectivity between CTPS1 and CTPS2)” value in experiment [2] (Table 26) is reported as “++ (>30-60 fold (++))”.

With `CCOc1cncc(-c2cnc(NC(=O)C(CC)c3ccnc(NS(=O)(=O)C4CC4)n3)c(C)c2)n1` (centres unmarked) [Example P155], in experiment [1] (Table 23), the pIC50 was not below 7.00. Besides, the “Selectivity (fold selectivity between CTPS1 and CTPS2)” value in experiment [2] (Table 26) was “+ (2-30 fold (+))”.

Consider `CCOc1cncc(-c2ccc(NC(=O)C3(c4ccnc(NS(=O)(=O)C5CC5)n4)CCC(N(C)C)CC3)nc2)n1` (single isomer, unassigned) [Example P229, 1-(2-(cyclopropanesulfonamido)pyrimidin-4-yl)-4-(dimethylamino)-N-(5-(6-ethoxypyrazin-2-yl)pyridin-2-yl)cyclohexane-1-carboxamide], for which the pIC50 in experiment [1] (Table 24) was not below 7.00. In experiment [2] (Table 27), the “Selectivity (fold selectivity between CTPS1 and CTPS2)” value is “+++ (>60 fold (+++))”.

With `CCOc1cncc(-c2ccc(NC(=O)C(C)(CC)c3ccnc(NS(=O)(=O)C4CC4)n3)nc2)n1` (centres unmarked) [Example P163], the pIC50 in experiment [1] (Table 23) is not below 7.00. Besides, the “Selectivity (fold selectivity between CTPS1 and CTPS2)” value in experiment [2] (Table 26) is recorded as “+++ (>60 fold (+++))”.

Consider `CCOc1cncc(-c2ccc(NC(=O)C3(c4ccnc(NS(=O)(=O)C5CC5)n4)CCC(O)CC3)nc2)n1` (single isomer, unassigned) [Example P227, 1-(2-(cyclopropanesulfonamido)pyrimidin-4-yl)-N-(5-(6-ethoxypyrazin-2-yl)pyridin-2-yl)-4-hydroxycyclohexanecarboxamide], for which the pIC50 in experiment [1] (Table 24) was not below 7.00. The “Selectivity (fold selectivity between CTPS1 and CTPS2)” value in experiment [2] (Table 27) is on record as “+++ (>60 fold (+++))”.

As for `CCC(C(=O)Nc1ccc(-c2cncc(OC)n2)cn1)c1ccnc(NS(=O)(=O)C2CC2)n1` (centres unmarked) [Example P159], the pIC50 in experiment [1] (Table 23) was not below 7.00. Further, in experiment [2] (Table 26), the “Selectivity (fold selectivity between CTPS1 and CTPS2)” value is on record as “+++ (>60 fold (+++))”.

Consider `CCOc1cncc(-c2ccc(NC(=O)C3(c4cncc(NS(=O)(=O)C5CC5)n4)CCOCC3)nc2)n1` [Example P197], for which, in experiment [1] (Table 23), the pIC50 was not below 7.00. Further, in experiment [2] (Table 26), the “Selectivity (fold selectivity between CTPS1 and CTPS2)” value is recorded as “+++ (>60 fold (+++))”.
